The first assay addresses T1, human NOX4 (Homo sapiens, UniProt Q9NPH5).
T1 construct: The full-length human NOX4 (NM_016931.3) transcript was cloned; expressed in transfected cells
T1 sequence (Q9NPH5 1-578): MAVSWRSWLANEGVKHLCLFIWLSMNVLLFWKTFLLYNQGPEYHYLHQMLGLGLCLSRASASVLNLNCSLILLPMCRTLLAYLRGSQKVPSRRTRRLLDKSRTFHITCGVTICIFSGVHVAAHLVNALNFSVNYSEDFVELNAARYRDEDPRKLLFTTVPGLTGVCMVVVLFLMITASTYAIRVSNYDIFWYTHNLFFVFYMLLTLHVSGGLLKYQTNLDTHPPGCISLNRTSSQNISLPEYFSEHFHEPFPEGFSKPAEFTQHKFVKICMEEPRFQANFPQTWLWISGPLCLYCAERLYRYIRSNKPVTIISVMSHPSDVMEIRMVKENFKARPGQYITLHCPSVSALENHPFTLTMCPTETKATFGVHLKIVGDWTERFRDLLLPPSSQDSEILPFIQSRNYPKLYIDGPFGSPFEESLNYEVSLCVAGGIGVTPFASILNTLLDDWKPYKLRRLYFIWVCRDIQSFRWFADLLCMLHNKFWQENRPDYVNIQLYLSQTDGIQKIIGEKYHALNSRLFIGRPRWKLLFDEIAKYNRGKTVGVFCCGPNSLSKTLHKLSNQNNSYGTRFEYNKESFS
T1 sequence (P13498 1-195 partner): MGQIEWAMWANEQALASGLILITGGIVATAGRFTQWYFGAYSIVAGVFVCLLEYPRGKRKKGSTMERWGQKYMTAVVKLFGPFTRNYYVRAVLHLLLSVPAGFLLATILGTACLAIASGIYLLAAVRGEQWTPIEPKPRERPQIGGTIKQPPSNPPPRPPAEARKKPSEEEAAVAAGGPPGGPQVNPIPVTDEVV
Kind of assay: Amplex Red activity assay (cellular H2O2 formation in hNOX4 T-REx-293 cells). The format is cell-based. The following applies: tet-induced 24 h, extracellular H2O2 by Amplex Red, 60 min 25° C., geometric mean if determined several times. The method, boiled down: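 Tet-induced (1 μg/mL, 24 h) HEK293 T-REx cells stably expressing full-length human NOX4, 20 000 cells/well, exposed to compounds (10 concentrations, 50 μM to 100 nM; 1.25% DMSO) for 60 min at 25°C. Extracellular H2O2 detected by Amplex Red resorufin fluorescence (ex 550/em 600 nm) versus vehicle; IC50 calculated.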
Sequence of horseradish peroxidase / H2O2 (P00433 31-338): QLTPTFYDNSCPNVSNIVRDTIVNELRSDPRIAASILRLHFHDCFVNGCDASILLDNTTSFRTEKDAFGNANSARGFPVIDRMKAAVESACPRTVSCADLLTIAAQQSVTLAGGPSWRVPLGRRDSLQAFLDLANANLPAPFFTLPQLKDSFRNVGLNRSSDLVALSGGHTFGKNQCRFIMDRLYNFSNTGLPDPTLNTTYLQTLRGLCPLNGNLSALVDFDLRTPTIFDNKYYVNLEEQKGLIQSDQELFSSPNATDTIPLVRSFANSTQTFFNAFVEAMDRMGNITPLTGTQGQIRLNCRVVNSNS
For “2,3-Dihydro-benzofuran-5-carboxylic acid (2-dimethylamino-benzothiazol-5-yl)-amide [Example 86]”, the IC50 (usually the concentration needed to halve the response being measured) came to 2.68 µM.

Regarding “2,3-Dihydro-benzofuran-5-carboxylic acid [2-(1-oxa-7-aza-spiro[3.5]non-7-yl)-benzooxazol-5-yl]-amide [Example 28]”, the IC50 turned out to be 0.695 µM. Take `O=C(Nc1ccc2c(c1)CCO2)c1ccc2sc(N3CCS(=O)(=O)CC3)nc2c1` [Example 199, 2-(1,1-Dioxo-thiomorpholin-4-yl)-benzothiazole-5-carboxylic acid (2,3-dihydro-benzofuran-5-yl)-amide]: the IC50 is 23.9 µM. `COC1CCN(c2nc3cc(C(=O)Nc4ccc5c(c4)CCO5)ccc3s2)CC1` [Example 200, 2-(4-Methoxy-piperidin-1-yl)-benzothiazole-5-carboxylic acid (2,3-dihydro-benzofuran-5-yl)-amide]: the IC50 is 2.75 µM.

Regarding `CN1CCN(c2nc3cc(C(=O)Nc4ccc5c(c4)CCO5)ccc3s2)CC1` [Example 201, 2-(4-Methyl-piperazin-1-yl)-benzothiazole-5-carboxylic acid (2,3-dihydro-benzofuran-5-yl)-amide], the IC50 amounted to 2.87 µM. Turning to `O=C(Nc1ccc2c(c1)CCO2)c1ccc2sc(N3CCC34CCOC4)nc2c1` (centres unmarked) [Example 202, 2-(6-Oxa-1-aza-spiro[3.4]oct-1-yl)-benzothiazole-5-carboxylic acid (2,3-dihydro-benzofuran-5-yl)-amide], the IC50 came out at 0.729 µM. The same measure, in the same setting: then `O=C(Nc1ccc2c(c1)OCCO2)c1ccc2sc(N3CCC34COC4)nc2c1` [Example 203, 2-(6-Oxa-1-aza-spiro[3.3]hept-1-yl)-benzothiazole-5-carboxylic acid (2,3-dihydro-benzo[1,4]dioxin-6-yl)-amide], with 1.84 µM. For the compound `O=C(Nc1ccc2c(c1)OCCO2)c1ccc2sc(N3CCC(F)(F)CC3)nc2c1` [Example 204, 2-(4,4-Difluoro-piperidin-1-yl)-benzothiazole-5-carboxylic acid (2,3-dihydro-benzo[1,4]dioxin-6-yl)-amide], the IC50 worked out at 25.5 µM. On to `COC1CCN(c2nc3cc(C(=O)Nc4ccc5c(c4)OCCO5)ccc3s2)CC1` [Example 205, 2-(4-Methoxy-piperidin-1-yl)-benzothiazole-5-carboxylic acid (2,3-dihydro-benzo[1,4]dioxin-6-yl)-amide], for which the IC50 was 26.8 µM.

`CN1CCN(c2nc3cc(C(=O)Nc4ccc5c(c4)OCCO5)ccc3s2)CC1` [Example 206, 2-(4-Methyl-piperazin-1-yl)-benzothiazole-5-carboxylic acid (2,3-dihydro-benzo[1,4]dioxin-6-yl)-amide]: the IC50 was 21.2 µM.

Turning to `O=C(Nc1ccc2c(c1)OCCO2)c1ccc2sc(N3CCCCC3)nc2c1` [Example 207, 2-Piperidin-1-yl-benzothiazole-5-carboxylic acid (2,3-dihydro-benzo[1,4]dioxin-6-yl)-amide], the half-inhibitory concentration (IC50) came out at 12.8 µM. Regarding `O=C(Nc1ccc2c(c1)OCCO2)c1ccc2sc(N3CCC34CCOC4)nc2c1` (centres unmarked) [Example 208, 2-(6-Oxa-1-aza-spiro[3.4]oct-1-yl)-benzothiazole-5-carboxylic acid (2,3-dihydro-benzo[1,4]dioxin-6-yl)-amide], the IC50 was 2.71 µM. Regarding `O=C(Nc1ccc2c(c1)OCO2)c1ccc2sc(N3CCC34COC4)nc2c1` [Example 209, 2-(6-Oxa-1-aza-spiro[3.3]hept-1-yl)-benzothiazole-5-carboxylic acid benzo[1,3]dioxol-5-ylamide], the IC50 is 1.5 µM. Still for that read-out and setting: then `COC1CCN(c2nc3cc(C(=O)Nc4ccc5c(c4)OCO5)ccc3s2)CC1` [Example 210, 2-(4-Methoxy-piperidin-1-yl)-benzothiazole-5-carboxylic acid benzo[1,3]dioxol-5-ylamide], with 6.9 µM. On to `CN1CCN(c2nc3cc(C(=O)Nc4ccc5c(c4)OCO5)ccc3s2)CC1` [Example 211, 2-(4-Methyl-piperazin-1-yl)-benzothiazole-5-carboxylic acid benzo[1,3]dioxol-5-ylamide], for which the IC50 stood at 8.9 µM.

A further assay has as its target horseradish peroxidase / H2O2 (Armoracia rusticana, UniProt P00433). Kind of assay: Amplex Red counter screen assay (cells replaced by H2O2). The following applies: counter screen: H2O2-generating cells replaced by 1562.5 nM H2O2 in 1×PBS; read-out: IC50 Control. The assay is classed as biochemical. On the procedure: In order to identify compounds that interfere with the activity assay either by inhibiting the activity of horseradish peroxidase or by directly interacting with the formed H2O2 a counter screen assay was established. This control assay is almost identical to the described Amplex Red activity assay with the only difference that the H2O2— generating cells are replaced by 1562.5 nM H2O2 in 1×PBS.
With “2,3-Dihydro-benzofuran-5-carboxylic acid (2-dimethylamino-benzothiazol-5-yl)-amide [Example 86]”, the IC50 was greater than 50 µM. Take “2,3-Dihydro-benzofuran-5-carboxylic acid [2-(1-oxa-7-aza-spiro[3.5]non-7-yl)-benzooxazol-5-yl]-amide [Example 28]”: the IC50 was greater than 50 µM.
